For `C[NH+](C)CCNCC[NH+](C)C`, under “basic group”, the pKa – broadly, the pH at which an ionisable group is half protonated – is 3.84.

Consider `O=C([O-])/C=C/C([O-])=C/C(=O)CC(=O)[O-]`, for which the pKa (acidic group) was 10.5. Compound `CN(C)c1ccc(C(=S)Nc2ccccc2)cc1` registered a pKa (acidic group) of 11.2.

Take `O=[N+]([O-])c1ccc2cccnc2c1O`: the pKa (basic group) came out at 1.94.

Compound `CC(=O)c1ccccc1` had a pKa (basic group) of 18.3. `CCOc1ccc(C(=O)O)cc1` yielded a pKa (acidic group) of 4.64. In turn, `NC(CC(=O)[O-])c1ccccn1` (stereo not given) returned a pKa (basic group) of 9.22. On to `C1CNCC[NH2+]CCN1`, for which the pKa (basic group) was 6.97. `Cc1cc(-c2cccc[nH+]2)nn1C`: the pKa (basic group) was -1.6. The compound `COc1ccc2c(c1)CC(C)N2` (stereo not given) had a pKa (basic group) of 6.2. `CCSc1nccc(O)[n+]1C` registered a pKa (acidic group) of 0.9.

In the case of `COc1ccc(CC(C(C)=O)C(C)=O)cc1`, the pKa (acidic group) was found to be 10.6. Regarding `Cc1c(Cn2ccnc2)sc2cc(C(=O)[O-])ccc12`, the pKa (basic group) was determined as 6.04. The compound `Cc1ccc(CN)cc1` showed a pKa (basic group) of 9.51. Compound `O=C([O-])C1CCCCN1` (stereo not given) showed a pKa (basic group) of 10.6. Turning to `Nc1nccc2c1[nH+]cn2CCOCP(=O)(O)O`, the pKa reads like this: (acidic group) 1.23; (basic group) 0.15. `Cc1cnc2c(ccc3c(C)c(C)cnc32)c1C`: the pKa (basic group) is 6.31. `Oc1ccc(-c2ccc(O)cc2)cc1`: the pKa (acidic group) is 9.4.

In turn, `OC(O)c1ccccn1` had a pKa (acidic group) of 12.8.

As for `O=S1(=O)N=CNc2ncccc21`, under “acidic group”, the pKa came out at 7.03. On to `CCCC(=O)NO`, for which the pKa (acidic group) turned out to be 9.48. Consider `Nc1cc([N+](=O)[O-])c2ccccc2c1`, for which the pKa (basic group) is 2.62. Take `Cc1ccccc1/C=C/c1ccc(N(C)C)cc1`: the pKa (basic group) was 4.59.

`Cc1cccc(C)n1`: the pKa (basic group) was 6.85. In the case of `CN1CC[C@]23c4c5ccc(OCc6ccccc6)c4O[C@H]2[C@@H](O)C=C[C@H]3[C@H]1C5`, the pKa (basic group) turned out to be 8.07. With `Nc1ncnc2nc[nH]c12`, the pKa (acidic group) came to 9.74 and the pKa (basic group) was found to be 4.2. In turn, `CCOC(=O)c1cnc(N(C)C)s1` came in with a pKa (basic group) of 2.77. Compound `Cc1cnc(C)c(O)c1C=O` gave a pKa (acidic group) of 8.08 and a pKa (basic group) of 4.1.

For the compound `CCCCCN(CC(C)O)CC(O)CC` (stereo not given), under “basic group”, the pKa was found to be 9.1. Take `[NH3+][C@H]1CCC[C@H](C(=O)O)C1`: the pKa (acidic group) worked out at 3.85. Compound `C[Si](C)(CN)O[Si](C)(C)CN` displayed a pKa (basic group) of 10.3. In the case of `CSC(=O)C1c2ccccc2-c2ccccc21`, the pKa (acidic group) was 10.5. Take `Cc1c(Cn2ccnc2)oc2ccc(C(=O)[O-])cc12`: where the note is “basic group”, the pKa was 6.08.

With `CC1CN(C)CC[NH+]1C` (stereo not given), the pKa (basic group) was 3.93. Where the note is “acidic group”, `Oc1ccccc1Cl` had a pKa of 8.4. `[NH3+]C(c1cccc(O)c1O)P(=O)([O-])[O-]` (stereo not given) had a pKa (acidic group) of 9.44. Same read-out and setting: the value for `CC(C)(C)C#CC(=O)O` was 2.66. Take `CCNc1nc(N)nc(NCC)n1`: the pKa (basic group) is 5.52. With `CC(Cc1ccccc1)N(C)CCC#N` (stereo not given), for the setting “basic group”, the pKa stood at 6.95.

For the setting “basic group”, `Cc1ccc(C2CN2)cc1` (stereo not given) showed a pKa of 6.76. Where the note is “basic group”, `O=C(CN1CCOCC1)NCc1ccccc1` registered a pKa of 4.98. On the same count and under the same terms, the value for `CCCc1ccnc2c1ccc1cccnc12` was 5.45. Compound `CNc1c(C)cccc1C` showed a pKa (basic group) of 6.12.

Where the note is “acidic group”, `CC[NH2+]CCC(=O)O` had a pKa of 3.61. In the case of `O=C(O)[C@H](O)c1ccc([N+](=O)[O-])cc1`, under “acidic group”, the pKa is 2.99.

On to `COC(=O)CCCc1c[nH]cn1`, for which the pKa (basic group) was 7.33. For `Cn1ncc2cncnc21`, the pKa (basic group) came to 2.5. Turning to `O=C(O)CNC(=O)c1cccc(O)c1O`, the pKa (acidic group) worked out at 3.5. As to `Cn1nc(/N=N/O)nc1Cl`, the pKa (acidic group) turned out to be 5.17. As to `CCOc1ccc2ccc(OCC)c(N3CCOCC3)c2c1N1CCOCC1`, under “basic group”, the pKa came to 12.5. Under “acidic group”, `O=[N+]([O-])c1ccc(/C=N/O)cc1` gave a pKa of 10. For the setting “basic group”, `O=[N+]([O-])c1cccc2nccc(NCCCO)c12` gave a pKa of 7.06. With `[O-]c1cc(O)c2ccccc2[nH+]1`, the pKa (acidic group) was 5.86. `O=C([O-])CCC(=O)NOCc1ccccc1`: the pKa (acidic group) came to 10.2. As for `Cc1cccc(C(=O)O)c1Cl`, the pKa (acidic group) turned out to be 3. For the compound `O=Cc1cccnc1`, the pKa (basic group) came out at 3.73. For the setting “basic group”, `CN(C)CC[NH+](C)C` returned a pKa of 6.04. Turning to `C1=CN2CCC1CC2`, the pKa (basic group) turned out to be 9.82. For the setting “acidic group”, `COc1nc(C)cc(O)[nH+]1` came in with a pKa of 1.6. `CN(C)/C=N/c1cccc(Cl)c1` registered a pKa (basic group) of 7.97.

`CCCCN(C(=O)c1ccc(O)cc1)c1ccc(/N=N/c2ccc3c(c2)OCCOCCOCCOCCOCCO3)cc1` registered a pKa (acidic group) of 9.12.

`Nc1nncc2ccccc12` returned a pKa (basic group) of 6.6.

Under “acidic group”, `O=C1CSCC(=O)C1` returned a pKa of 4.34. `CCCN(CCC)CCCNC(=O)/C=N/[O-]` displayed a pKa (basic group) of 10.3. In the case of `[O-]c1[nH+]c(O)c(Br)c[n+]1[C@H]1O[C@@H](CO)[C@H](O)[C@@H]1O`, where the note is “acidic group”, the pKa is -0.9. Where the note is “acidic group”, `CCCCCCCCCCCCCC(=O)N(O)c1ccccc1` registered a pKa of 9.05. In the case of `CCCOC(=O)c1ccc(N)cc1`, the pKa (basic group) stood at 2.49.

Where the note is “acidic group”, `O=c1ccccc(Br)c1O` showed a pKa of 5.96.

For the setting “acidic group”, `C[Si](C)(C)CCCCC(=O)O` had a pKa of 4.96. In turn, `Cn1c(-c2ccccn2)[nH+]c2ccccc21` registered a pKa (basic group) of -1.27. `Cc1cnc2cccc([N+](=O)[O-])c2c1NCCC[NH+](C)C`: where the note is “basic group”, the pKa turned out to be 6.01. As for `c1cc(C2CCCN2)nc(C2CCC[NH2+]2)c1` (stereo not given), where the note is “basic group”, the pKa came out at 9.46. Still for that read-out and setting: the value for `Cc1ccc(OC(=O)CCCN(C)C)cc1` was 9.53.

On to `CC(C)(C)N1CC(O[Si](C)(C)C)C1`, for which, for the setting “basic group”, the pKa was 9.24. Where the note is “basic group”, `CCc1c(-c2ccccc2)nn(C2CCN(C)CC2)c1[O-]` gave a pKa of 9.15. On to `CC[NH+](CC)CCNc1cc(C)nc(Nc2ccc(Cl)cc2)n1`, for which the pKa (basic group) was 6.65. `C[Si](C)(C)CCC(=O)O` returned a pKa (acidic group) of 4.91. As for `N#CCN1CCCCC1`, the pKa (basic group) was 4.55. With `Cc1cc([O-])[nH+]c([O-])n1`, the pKa (basic group) amounted to 9.29. For `O=C(CC(=O)c1ccccc1)Nc1ccccc1`, the pKa (acidic group) is 9.54.

`C=CCNc1ccccc1`: the pKa (basic group) came to 4.17.

With `O=C(Oc1ccc([N+](=O)[O-])cc1[N+](=O)[O-])c1ccc(O)cc1`, the pKa (acidic group) was 7.68.

Take `CCC(O)C(C(=O)O)c1ccc(-c2ccccc2)cc1` (stereo not given): under “acidic group”, the pKa is 4.16. For the compound `CCc1cccc2ccc(O)cc12`, the pKa (acidic group) was 9.54. The same measure, in the same setting: the value for `Cn1c(=O)c2c([nH]c(=O)n2C)n(C)c1=O` was 6. For the compound `CN(C)c1ccc([N+](=O)[O-])cc1`, the pKa (basic group) stood at 0.69.

Regarding `O=c1oc2cc(O)ccc2cc1-c1nc2cc(Cl)ccc2o1`, the pKa (acidic group) worked out at 6.8. For the compound `CN(C)c1ncnc2nc[nH]c12`, the pKa worked out at 10.5 (acidic group) and 3.87 (basic group). `CNC(C(=O)[O-])C(C)C` (stereo not given) gave a pKa (basic group) of 9.9. `CC1/C(=N\O)C[C@@H]2N=C(c3ccccc3)O[C@@]13[C@@H]1OC(=O)[C@H](C)[C@H]1CC[C@]23C` (stereo not given in full) returned a pKa (basic group) of 4.65. `SCc1c[nH]cn1`: the pKa reads like this: (acidic group) 9.54; (basic group) 6.54.

Where the note is “basic group”, `c1ccc(-c2ccncc2)nc1` showed a pKa of 4.77. As for `CC(C)Cc1cnc(CC(C)C)c(O)[nH+]1`, the pKa (acidic group) came to 1.7. Compound `CC(C)N(CCC(c1ccccc1)c1ccccn1)C(C)C` (stereo not given) came in with a pKa (basic group) of 10.5. Turning to `O=C(O)c1ccc(Cl)c([N+](=O)[O-])c1`, the pKa (acidic group) came out at 3.33.

For the origin of these results see the pKa sets of Baltruschat and Czodrowski (2020).
